Here are results for five compounds from US20220064141A1, “BENZOPYRIDONE HETEROCYCLIC COMPOUND AND USE THEREOF” (BrightGene Bio-Medical Technology Co., Ltd., priority 2019, published 2022).

Common to all, as to assay type: cell-based
The test system of assay [1] is NCI-H358 human non-small cell lung cancer cell with KRAS G12C mutation. The experiment in a line: Cell Titer-Glo cell viability, NCI-H358 cells (72 h). The conditions noted are these: Homo sapiens. From the text:
Effect Example 1: Pharmacodynamic Assay 1 (Determination of the efficacy of the compounds of the present disclosure on NCI-H358 human non-small cell lung cancer cell with KRAS G12C mutation)
The following method was used to determine the effect of the compounds of the present disclosure on tumor cell proliferation.
(§1) For the KRAS G12C subtype, NCI-H358 non-small cell lung cancer cells with KRAS G12C mutation were used to determine the efficacy of the compounds in inhibiting cancer cell viability. NCI-H358 cells were cultured in a DMEM medium containing 10% fetal bovine serum, 100 U penicillin and […] streptomycin. The cells were cultured in an incubator with 5% CO2 at 37° C. Cancer cell viability was evaluated by determining the content of ATP with Cell Titer-Glo® kit (Luminescent Cell Viability Assay kit, please refer to the manufacturer's instructions for use) and evaluating the inhibition of cell growth.
(§2) The experimental method was proceeded in accordance with the steps in the instructions for the kit, and was described briefly as follows. The test compounds were first dissolved in DMSO to prepare stock solutions, and then the stock solutions were subjected to gradient dilution with the culture media of the corresponding cells, thereby preparing test samples. The final concentrations of the compounds were in the range of 30 μM to 0.01 nM. Tumor cells in logarithmic growth phase were seeded into a 96-well cell culture plate at an appropriate density. After the cell culture plate was left overnight in an incubator with 5% CO2 at 37° C., the test compound samples were added thereto and then the cells were further cultured for 72 hours. After the incubation was complete, an appropriate volume of Cell Titer-Glo® reagent was added into each well, and the cells were incubated at 37° C. for 1 to 4 hours. Then, the […] was read on a microplate reader.
In general terms: Cellular ATP, detected with luciferase, serves as a proxy for viable cell number.

For assay [2], the system named is HCT116 human colon cancer cells with high expression of KRAS G13D. The experiment in a line: Cell Titer-Glo cell viability, HCT116 cells (72 h). The conditions noted are these: HCT-116.
Source text: (§3) Effect Example 2: Pharmacodynamic Assay 2 (Determination of the efficacy of the compounds of the present disclosure on HCT116 human colon cancer cells with high expression of KRAS G13D and A549 human non-small cell lung cancer cells with high expression of KRAS G12S)
(§4) The following method was used to determine the effects of the compounds of the present disclosure on tumor cell proliferation.
as §1, with “For” for “For the”, “G13D” for “G12C”, “HCT116 human colon cancer cell was used. For KRAS G12S subtype, A549 human” for “NCI-H358”, “cell was used. The” for “cells with KRAS G12C mutation were used to determine the”, “viability was determined. HCT116 cells or A549” for “viability. NCI-H358”
as §2, with “reader. The percentage inhibition rates of the compounds at each concentration point were calculated by comparing the absorbance values of the sample wells with that of the control group (0.3% DMSO), and then non-linear regression analysis of the concentration of the compound vs inhibition rate was performed by using GraphPad Prism 5 software, thereby obtaining IC50 values indicating the inhibitory effects of the compounds on cell proliferation.” for “reader.”

Assay [3] has as its system A549 human non-small cell lung cancer cells with high expression of KRAS G12S. The experiment in a line: Cell Titer-Glo cell viability, A549 cells (72 h).
Source text: as §3, §4
as §1, with “For” for “For the”, “G13D” for “G12C”, “HCT116 human colon cancer cell was used. For KRAS G12S subtype, A549 human” for “NCI-H358”, “cell was used. The” for “cells with KRAS G12C mutation were used to determine the”, “viability was determined. HCT116 cells or A549” for “viability. NCI-H358”
as §2, with “reader. The percentage inhibition rates of the compounds at each concentration point were calculated by comparing the absorbance values of the sample wells with that of the control group (0.3% DMSO), and then non-linear regression analysis of the concentration of the compound vs inhibition rate was performed by using GraphPad Prism 5 software, thereby obtaining IC50 values indicating the inhibitory effects of the compounds on cell proliferation.” for “reader.”

Structures are written as SMILES.

For `C=CC(=O)N1CCN(c2c(C#N)c(=O)n(-c3ccccc3C(C)C)c3cc(-c4c(C)ccc5[nH]ncc45)c(Cl)cc23)[C@@H](C)C1` [Compound I-2-1], the IC50 (as a rule, the concentration that inhibits the measured activity by half) in assay [1] (NCI-H358, 72 h, numeric values) is 1150 nM; in assay [2], more than 3000 nM; in assay [3] it was more than 3000 nM.

Regarding `C=CC(=O)N1CCN(c2c(C#N)c(=O)n(-c3ccccc3C(C)C)c3cc(-c4c(C)ccc5[nH]ncc45)c(Cl)cc23)CC1` [Compound I-1], the IC50 in assay [1] (NCI-H358, 72 h, numeric values) was 1170 nM; in assay [2], more than 3000 nM; in assay [3], more than 3000 nM.

Take `C=CC(=O)N1CCN(c2ncnc3c(F)c(-c4c(O)cccc4F)c(Cl)cc23)CC1` [ARS-1620, reference compound]: the IC50 in assay [1] (numeric values) was 226 nM; in assay [2], more than 3000 nM; in assay [3], more than 3000 nM.

For the compound `C=CC(=O)N1CCN(c2c(C#N)c(=O)n(-c3ccccc3C(C)C)c3cc(-c4cnc(C5CC5)nc4)c(Cl)cc23)[C@@H](C)C1` [Compound I-27], in assay [1] (NCI-H358, 72 h, class symbols), the IC50 lay within 100 to 1000 nM.

Compound `C=CC(=O)N1CCN(c2c(C#N)c(=O)n(-c3ccccc3C(C)C)c3cc(-c4cccc5c4oc4ccccc45)c(Cl)cc23)[C@@H](C)C1` [Compound I-20] showed an IC50 in assay [1] (NCI-H358, 72 h, class symbols) of 100 to 1000 nM.
